Measurements from patent US6426105B1, “Use of lysophosphatidylethanolamine (18.1) and lysophosphatidylinositol to retard senescence and to enhance fruit ripening” (Wisconsin Alumni Research Foundation, priority 1997, dated 2002).

Legend:
tomato leaves = assay: Retardation of ethephon-induced leaf senescence in tomato plants; type: in vivo, Tomato plants cv. H9144; conditions: ethephon 1000 mg/L ± lysophospholipid 50 mg/L spray; 10 to 14 days after treatment; Mean ± SE
Procedure: Ethephon, also known as Ethrel, (Ethrel is a trademark of Rhone-Poulenc Ag. Co. (Research Triangle Park, N.C.)) is an aqueous formulation that decomposes to ethylene and is used widely to maximize the yield of ripe tomato fruits in once-over harvesting operations. […] Tomato plants cv. H9144 were grown in a greenhouse for two and a half months to serve as sources of leaf samples. Plant were sprayed to runoff with ethephon at 1000 mg/L or with ethephon plus lysophospholipid mixtures as shown below in Table 6. Lysophospholipid solutions at 50 mg/L were prepared in 1% (v/v) ethanol and mixed with ethephon (1000 mg/L). Control plans were sprayed with ethephon alone in 1% (v/v) ethanol. Senescence of treated leaves was quantified 10 to 14 days after treatment by measuring chlorophyll and protein content.

[1] = tested on: partially purified cabbage PLD; assay: Partially purified cabbage PLD activity assay (PEOH release from PC); conditions: for Effect of different lysophospholipids on PLD activity: FIG. 5; for Effect of components of the LPE molecule on PLD activity: FIG. 2
senescing leaves = assay: Leaf chlorophyll content after eight day senescence; type: in vivo; conditions: after eight day senescence (FIG. 6)
Procedure: To evaluate the relative efficacy of various species of lysophospholipids in delaying senescence in leaves, treatment solutions containing lysophosphatidic acid (LPA), lysophosphatidylcholine (LPC),LPE, LPI, or water were applied to leaves. The chlorophyll content of each sample was measured by standard methods (10) after an eight day senescence. The relative chlorophyll contents were expressed as the percentage of the control.

tomato fruits = assay: Retardation of senescence of harvested mature green tomato fruits; type: in vivo, Lycopersicon esculentum cv. H9144; conditions: for Ethylene Production after 7 days / Rotten fruits after 3 weeks (% of total): 100 mg/L in 1% ethanol, 20 min dip; for Ethylene Production after 7 days: control 1.26 ± 0.21, Mean ± SE; for Rotten fruits after 3 weeks (% of total): control 37.2; for ethylene production relative to control: 7 days after treatment
Procedure: Mature green fruits of tomato (Lycopersicon esculentum cv. […]) were harvested from three month old plants. […] The control tomatoes were dipped in distilled water containing 1% ethol. After dipping, the fruits were stored at room temperature for 3 weeks. Production of ethylene gas was measured 7 days after treatment.

tomato plants/fruits = assay: Enhancement of tomato fruit ripening and stability by preharvest spray; type: in vivo, Tomato plants cv. H9478; conditions: 100 mg/L spray 10 days before harvest; for At Harvest, Partial Red fruits (weight % of total): control 13.2; for At Harvest, Green fruits (weight % of total): control 33.2; for 3 Weeks After Harvest, Soft Fruits (non marketable) (weight % of total): control 47.8; for At Harvest, Red fruits (weight % of total): control 53.6
Procedure: This experiment was conducted to compare the effects of […] (18:1) and LPI on fruit ripening. Tomato plants cv. […] were grown in pots for two and one-half months under fluorescent lights. […] All solutions contained 1% ethol and 0.05% […] 309 (Dow Corning Co., Midland, Mich.) as activating agents. Control plants received distilled water containing 1% ethanol and 0.05% […] 309. Fruits were harvested 10 days after treatment and graded into green, partial red, and red (indicating full ripening). […] (see Table 7).

[2] = tested on: carnation flowering spikes; assay: Vase life of cut carnation flowers; conditions: 25 mg/L; control 27.5 ± 3.3; Mean ± SE
[3] = tested on: snapdragon flowering spikes; assay: Vase life and senescence of cut snapdragon spikes; conditions: for Spikes with Wilted Flower Florets after 7 days (% of total): 24 hr; for Spikes with Wilted Flower Florets after 7 days (% of total) / Water Content of Leaf after 18 days (Fresh wt/Dry wt): Mean ± SE; for Water Content of Leaf after 18 days (Fresh wt/Dry wt): control 5.79 ± 0.18; for Vase Life of Spikes (Days when > 50% of spikes remained marketable): control 4; for Leaf water content of spikes: 18 days after treatment; for spikes wilted after 7 days of treatment: range over tested concentrations, control 76%
cranberry fruits = assay: Ethylene production of postharvest cranberry fruits after LPE dip; type: in vivo, Vaccinium macrocarpon Ait. 'Stevens'; conditions: for Ethylene production, Relative %: 100 μM, control = 100
Procedure: However, the impact of different acyl chains of LPE on fruit senescence has not been investigated. In the present study, complementary to the effect of different acyl chains of LPE on PLD activity, the inventors investigated the effect of different acyl chains of LPE on ethylene production of cranberry fruits. Fully ripened cranberry fruits (Vaccinium macrocarpon Ait. 'Stevens') were harvested during the fall season and kept in a cold room. […] After two days, berries were incubated in a sealed glass jar for 24 hours in order to measure ethylene production. Ethylene was quantified with a gas chromatograph equipped with a flame ionization detector (Shinadzu 9AM, Shimadzu Corporation, Kyoto, Japan) (3).

soluble cabbage PLD = assay: Soluble PLD activity, cabbage leaf extract (radio-labeled PC); type: biochemical, cabbage (Brassica oleracea L. Blue Vintage)
[4] = tested on: membrane-associated cabbage PLD; assay: Membrane-associated PLD activity, cabbage leaf extract; type: biochemical, cabbage (Brassica oleracea L. Blue Vintage)
[5] = tested on: membrane-associated castor bean PLD
[6] = 200 μM, PC substrate (FIG. 1, 2, 5)

O=P(O)(O)CCCl [Ethephon (E), ethephon]
Chlorophyll Content (tomato leaves): 3.65 ± 0.25 mg/g dry wt | Protein Content (tomato leaves): 58.8 ± 14.7 mg/g dry wt

lysophosphatidic acid [LPA]
PLD activity, % of the control [1, 6]: 169% | Effect of different lysophospholipids on PLD activity [1]: significantly increased PLD activity

CCCCCCCC/C=C\CCCCCCCC(=O)O [18:1 fatty acid]
Effect of components of the LPE molecule on PLD activity [1]: no inhibitory effect

lysophosphatidylglycerol [LPG]
Effect of different lysophospholipids on PLD activity [1]: did not significantly affect

lysophosphatidylinositol [LPI]
chlorophyll content of senescing leaves (senescing leaves): much higher than leaves treated with LPA, LPC or LPEegg | Ethylene Production after 7 days (tomato fruits): 0.71 ± 0.40 nl/g. hr^1 | Rotten fruits after 3 weeks (% of total) (tomato fruits): 17.5 % of total | ethylene production relative to control (tomato fruits): about half of the control | At Harvest, Partial Red fruits (weight % of total) (tomato plants/fruits): 11.7 weight % of total | At Harvest, Green fruits (weight % of total) (tomato plants/fruits): 18.3 weight % of total | 3 Weeks After Harvest, Soft Fruits (non marketable) (weight % of total) (tomato plants/fruits): 25.6 weight % of total | At Harvest, Red fruits (weight % of total) (tomato plants/fruits): 70.1 weight % of total | Marketable Flowers after 6 days of treatment (% of total) [2]: 44.2 ± 8.3 % of total | Spikes with Wilted Flower Florets after 7 days (% of total) ([3]; 5 mg/L, control 75.5 ± 10.3): 21.6 ± 7.0 % of total | Water Content of Leaf after 18 days (Fresh wt/Dry wt) ([3]; 5 mg/L): 7.57 ± 0.52 Fresh wt/Dry wt | Spikes with Wilted Flower Florets after 7 days (% of total) ([3]; 10 mg/L): 15.0 ± 11.5 % of total | Vase Life of Spikes (Days when > 50% of spikes remained marketable) ([3]; 10 mg/L): 13 days | Spikes with Wilted Flower Florets after 7 days (% of total) ([3]; 25 mg/L): 17.8 ± 7.5 % of total | Leaf water content of spikes [3]: higher than that of LPEegg and water-treated spikes | spikes wilted after 7 days of treatment [3]: 15-22% | PLD activity, % of the control [1, 6]: 31% | Effect of different lysophospholipids on PLD activity [1]: inhibitory effects somewhat similar to those of LPE

CCCCCCCCCCCCCCCC(=O)OCC(O)COP(=O)(O)OCCN (stereo not shown) [LPE16:0]
Ethylene production, Relative % (cranberry fruits): 92.7%

CCCCCCCC/C=C\CCCCCCCC(=O)OCC(O)COP(=O)(O)OCCN (stereo not shown) [LPE (18:1), lysophosphatidylethanolamine (18:1)]
Ratio (LPE/Control), Soluble PLD, Cabbage (soluble cabbage PLD; 200 μM): 0.51 | Soluble PLD activity, Cabbage (soluble cabbage PLD; 200 μM, control 45.2 ± 3.5, mean ±SE): 23.1 ± 1.6 nmol min^−1 mg^−1 protein | Specific activity of soluble cabbage PLD, % of the control (soluble cabbage PLD; in the presence of LPE (18:1)): 51% | Ratio (LPE/Control), Membrane-associated PLD, Cabbage ([4]; 200 μM): 0.59 | Membrane-associated PLD activity, Cabbage ([4]; 200 μM, control 368.8 ± 6.5, mean ±SE): 217.0 ± 13.0 nmol min^−1 mg^−1 protein | Specific activity of membrane-associated cabbage PLD, % of the control ([4]; in the presence of LPE (18:1)): 59% | Ethylene production, Relative % (cranberry fruits): 59.6% | decrease in ethylene production (cranberry fruits; 2 days after treatment): 40% | Ethylene Production after 7 days (tomato fruits): 0.70 ± 0.20 nl/g. hr^1 | Rotten fruits after 3 weeks (% of total) (tomato fruits): 7.7 % of total | ethylene production relative to control (tomato fruits): about half of the control | At Harvest, Partial Red fruits (weight % of total) (tomato plants/fruits): 11.7 weight % of total | At Harvest, Green fruits (weight % of total) (tomato plants/fruits): 22.9 weight % of total | 3 Weeks After Harvest, Soft Fruits (non marketable) (weight % of total) (tomato plants/fruits): 33.0 weight % of total | At Harvest, Red fruits (weight % of total) (tomato plants/fruits): 65.4 weight % of total | Soluble castor bean PLD activity, % of the control (soluble castor bean PLD): 30% | Ratio (LPE/Control), Soluble PLD, Castor Bean (soluble castor bean PLD; 200 μM): 0.30 | Soluble PLD activity, Castor Bean (soluble castor bean PLD; 200 μM): 3.1 ± 0.1 nmol min^−1 mg^−1 protein | Membrane-associated castor bean PLD activity, % of the control [5]: 31% | Membrane-associated PLD activity, Castor Bean ([5]; 200 μM): 47.0 ± 3.6 nmol min^−1 mg^−1 protein | Ratio (LPE/Control), Membrane-associated PLD, Castor Bean ([5]; 200 μM): 0.31 | Marketable Flowers after 6 days of treatment (% of total) [2]: 41.7 ± 8.3 % of total | Spikes with Wilted Flower Florets after 7 days (% of total) ([3]; 5 mg/L, control 75.5 ± 10.3): 34.5 ± 5.5 % of total | Water Content of Leaf after 18 days (Fresh wt/Dry wt) ([3]; 5 mg/L): 7.81 ± 0.22 Fresh wt/Dry wt | Spikes with Wilted Flower Florets after 7 days (% of total) ([3]; 10 mg/L): 30.0 ± 5.5 % of total | Vase Life of Spikes (Days when > 50% of spikes remained marketable) ([3]; 10 mg/L): 12 days | Spikes with Wilted Flower Florets after 7 days (% of total) ([3]; 25 mg/L): 38.7 ± 8.5 % of total | Leaf water content of spikes [3]: higher than that of LPEegg and water-treated spikes | spikes wilted after 7 days of treatment [3]: 30-39% | PLD activity, % of the control ([1]; 10 μM (FIG. 3)): 50% | PLD activity, % of the control ([1]; 40 μM, PC substrate (FIG. 1)): 16% | PLD activity, % of the control [1, 6]: 11% | Vmax ([1]; in the presence of LPE (18:1), control Vmax 20.0): 2.9 μmol min^−1 mg^−1 protein | Km ([1]; read-out: apparent Km for PLD, in the presence of LPE, substrate PC (FIG. 4)): 1700 µM | Type of PLD inhibition ([1]; substrate concentration varied (FIG. 4)): non-competitive inhibition

CCCCCCCCCCCCCCCCCC(=O)OCC(O)COP(=O)(O)OCCN (stereo not shown) [LPE18:0]
Ethylene production, Relative % (cranberry fruits): 71.3%

lysophosphatidylserine [LPS]
Effect of different lysophospholipids on PLD activity [1]: did not significantly affect

NCCO [ethanolamine]
Effect of components of the LPE molecule on PLD activity [1]: no inhibitory effect

Lysophosphatidylcholine [LPC]
Effect of different lysophospholipids on PLD activity [1]: did not significantly affect

phosphatidylethanolamine [PE]
PLD activity, % of the control [1, 6]: 126%

CCCCCCCCCCCCCC(=O)OCC(O)COP(=O)(O)OCCN (stereo not shown) [LPE 14:0]
Ethylene production, Relative % (cranberry fruits): 100.0% | Effect on PLD activity ([1]; 40 and 200 μM, LPE with different acyl chains (FIG. 1)): very little effect
